According to patent US6900216B2, “Dihydroimidazo[2,1-b]thiazole and dihydro-5h-thiazolo[3,2-A]pyrimidines as antidepressant agents” (Knoll GmbH, priority 2000, dated 2005):

These compounds were tested against T1, 5-HT1A receptors (Rattus norvegicus, UniProt P19327) (assay: 5-HT1A binding: inhibition of [3H]8-OH-DPAT binding to rat hippocampal membranes). Conditions: 10^−6 M test compound, single determination, [3H]8-OH-DPAT; read-out: 5-HT1A % displacement at 10^−6 M.
T1 construct: Hippocampal tissue from the brains of male Sprague-Dawley rats; from tissue; host or cells: rat hippocampal membranes
T1 sequence (P19327 1-422): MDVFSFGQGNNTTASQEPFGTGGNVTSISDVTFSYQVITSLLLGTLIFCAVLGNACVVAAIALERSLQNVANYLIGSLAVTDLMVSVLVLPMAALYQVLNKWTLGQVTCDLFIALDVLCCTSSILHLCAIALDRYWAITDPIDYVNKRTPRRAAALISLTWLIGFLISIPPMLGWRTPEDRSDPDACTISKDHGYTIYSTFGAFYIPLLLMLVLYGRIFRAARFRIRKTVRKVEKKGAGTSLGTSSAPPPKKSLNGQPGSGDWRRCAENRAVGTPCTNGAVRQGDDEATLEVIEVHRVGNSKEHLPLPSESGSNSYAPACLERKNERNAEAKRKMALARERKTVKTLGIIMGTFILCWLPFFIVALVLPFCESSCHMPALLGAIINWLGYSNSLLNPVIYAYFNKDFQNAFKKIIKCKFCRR
Method: Hippocampal tissue from the brains of male Sprague-Dawley rats (Charles River; weight range 150-250 g) was homogenised in ice-cold 50 mM Tris-HCl buffer (pH 7.7 when measured at 25° C., 1:40 w/v) and centrifuged at 40,000 g at 4° C. for 10 minutes. The pellet was rehomogenised in the same buffer, incubated at 37° C. for 10 minutes and centrifuged at 40,000 g at 4° C. for 10 minutes. The final pellet was resuspended in 50 mM Tris-HCl buffer (pH 7.7) containing 4 mM CaCl2, 0.1% L-ascorbic acid and 10 μM pargyline hydrochloride (equivalent to 6.25 mg wet weight of tissue/ml) and used immediately in the binding assay.
Membranes (400 μl; equivalent to 2.5 mg wet weight of tissue/tube) were incubated with 50 μl of [^3H]8-hydroxy-2-(dipropylamino)tetralin ([^3H]8-OH-DPAT) at a single concentration of 1 nM and 50 μl of distilled water (total binding) or 50 μl of test compound (at a single concentration of 10^−6 M or at 10 concentrations ranging from 10^−11-10^−3 M) or 50 μl of 5-HT (10 μM, non-specific binding) at 25° C. for 30 minutes. The incubation was terminated by rapid filtration under vacuum through Skatron 11734 filters using a Skatron Cell Harvester. Filters were washed with ice-cold 50 mM Tris-HCl buffer, pH 7.7 (at 25° C., wash setting 9,9,0). The scored filter paper discs were punched out into vials, scintillation fluid added and radioactivity determined by liquid scintillation counting.
For each of these tests measuring the ability of compounds of Formula I to displace standard ligands from 5-HT1A receptors and 5-hydroxytryptamine (5-HT) and noradrenaline (NA) reuptake sites and muscarinic receptors in vitro, the percentage displacement of specific binding of tritiated ligand by 10^−6 M test compound was calculated in the following way.
Firstly, specific binding of tritiated ligand in the absence (A) and presence (B) of test compound was determined:
In the absence of compound: A(dpm)=Total binding (dpm)−Non-specific binding (dpm) In the presence of compound (10^−6 M): B(dpm)=Binding at 10^−6M (dpm)−Non-specific binding (dpm)
The specific binding of tritiated ligand in the presence (B) of compound was then converted to a percentage of specific binding of tritiated ligand in the absence (A) of compound: % Specific binding at 10^−6 M=B(dpm)/A(dpm)×100
The percentage displacement of specific binding of tritiated ligand by the test compound (10^−6 M) was then obtained by subtraction of the percentage specific binding in the presence of compound from the percentage specific binding in the absence of compound, which is taken as the maximum binding and so equals 100%:
% Displacement at 10^−6 M=100−% Specific binding at 10^−6 M.
In some cases, displacement curves were then produced for compounds which displaced ≧50% of specific binding of the tritiated ligand at 10^−6 M using a range of concentrations of the compound. The Ki was then calculated by simultaneous fitting using equations derived from the Feldman equations by robust non-linear regression to data from three experiments simultaneously (De Lean et al., 1978; Munson and Rodbard, 1980; Feldman, 1992). Munson P J and Rodbard D. Ligand: a versatile computerised approach for characterisation of ligand binding systems. Anal Biochem 1980; 107: 220. Feldman HA. Mathematical theory of complex ligand binding systems at equilibrium: some methods for parameter fitting. Anal Biochem 1992: 48, 317. De Lean A, Munson P J and Rodbard D. Simultaneous analysis of families of sigmoidal curves: application to bioassay, radioligand assay, and physiological dose-response curves. Am J Physiol 1978: 235 (2), E97-E102.
The results obtained in the above tests for 5-HT1A binding and 5-HT and NA uptake and muscarinic binding for the final products of Examples 1-39 hereinafter are given in Table 1 below. Kis are in nM. % Figures are for % displacement at 10^−6 M for a single determination.

Q: Which inhibition at 1 µM does the source give for `CSC1=C(c2ccc3sccc3c2)N2CCN=C2S1` [Example 30, 3-(benzo[b]thiophen-5-yl)-2-(methylthio)-5,6-dihydroimidazo[2,1-b]thiazole] here?
A: Its inhibition at 1 µM is 66%.

Same assay, conditions: [3H]8-OH-DPAT 1 nM, rat hippocampal membranes; fit to data from three experiments

Q: `Br.c1cc(C2=C(C3CC3)SC3=NCCN32)c2ccsc2c1` [Example 34, 3-(benzo[b]thiophen-4-yl)-2-cyclopropyl-5,6-dihydroimidazo[2,1-b]thiazole hydrobromide] was tested. Which Ki did it give?
A: Its Ki is 45 nM.

Q: `CC1=C(c2cccc3sccc23)N2CCN=C2S1.Cl` [Example 9, 3-(benzo[b]thiophen-4-yl)-2-methyl-5,6-dihydroimidazo[2,1-b]thiazole hydrochloride] was tested. Which Ki did it give?
A: Its Ki is 15 nM.

Q: For `Br.CC1=C(c2ccc(F)c3sccc23)N2CCN=C2S1` [Example 38, 3-(7-fluorobenzo[b]thiophen-4-yl)-2-methyl-5,6-dihydroimidazo[2,1-b]thiazole hydrobromide], which Ki is on record?
A: Its Ki is 29 nM.

Q: For `Br.CC1=C(c2cc3ccccc3s2)N2CCN=C2S1` [Example 6, 3-(benzo[b]thiophen-2-yl)-2-methyl-5,6-dihydroimidazo[2,1-b]thiazole hydrobromide], which Ki is on record?
A: Its Ki is 9.7 nM.

Q: `CC(C)C1=C(c2ccc3sccc3c2)N2CCN=C2S1` [Example 29, 3-(benzo[b]thiophen-5-yl)-2-(1-methylethyl)-5,6-dihydroimidazo[2,1-b]-thiazole] was tested. Which Ki did it give?
A: The Ki was 83 nM.

Q: `Br.CCC1=C(c2cccc3sccc23)N2CCN=C2S1` [Example 13, 3-(benzo[b]thiophen-4-yl)-2-ethyl-5,6-dihydroimidazo[2,1-b]thiazole hydrobromide] was tested. Which Ki did it give?
A: Its Ki is 15.5 nM.

Q: With `CC(C)C1=C(c2cccc3sccc23)N2CCN=C2S1.O=C(O)/C=C/C(=O)O` [Example 35, 3-(benzo[b]thiophen-4-yl)-2-(1-methylethyl)-5,6-dihydroimidazo[2,1-b]thiazole fumarate] as the compound, how does the Ki read?
A: The Ki was 151 nM.

Q: `OCC1=C(c2ccc3sccc3c2)N2CCN=C2S1` [Example 28, [3-(benzo[b]thiophen-5-yl)-5,6-dihydroimidazo[2,1-b]-thiazol-2-yl]methanol] was tested. Which Ki did it give?
A: The Ki was 38.5 nM.

Q: `Br.CC1=C(c2cc3c(Cl)cccc3s2)N2CCN=C2S1` [Example 10, 3-(4-chlorobenzo[b]thiophen-2-yl)-2-methyl-5,6-dihydroimidazo[2,1-b]thiazole hydrobromide] was tested. Which Ki did it give?
A: Its Ki is 5.9 nM.

Q: For `CC1=C(c2cccc3ccsc23)N2CCN=C2S1.Cl` [Example 23, 3-(benzo[b]thiophen-7-yl)-2-methyl-5,6-dihydroimidazo[2,1-b]thiazole hydrochloride], which Ki is on record?
A: The Ki was 20 nM.

Q: How did the Ki turn out when `Br.C=CCC1=C(c2cccc3sccc23)N2CCN=C2S1` [Example 36, 2-allyl-3-(benzo[b]thiophen-4-yl)-5,6-dihydroimidazo[2,1-b]thiazole hydrobromide] was run?
A: Its Ki is 40 nM.

Q: For `Br.CC1=C(c2ccc3sccc3c2)N2CCN=C2S1` [Example 21, 3-(benzo[b]thiophen-5-yl)-2-methyl-5,6-dihydroimidazo[2,1-b]thiazole hydrobromide], which Ki is on record?
A: The Ki was 31 nM.

Q: How did the Ki turn out when `Br.CC1=C(c2cccc3sccc23)N2CCN=C2S1` [Example 8, 3-(benzo[b]thiophen-4-yl)-2-methyl-5,6-dihydroimidazo[2,1-b]thiazole hydrobromide] was run?
A: The Ki was 14.3 nM.

Q: How did the Ki turn out when `Br.CC1=C(c2cc3c(F)cccc3s2)N2CCN=C2S1` [Example 7, 3-(4-fluorobenzo[b]thiophen-2-yl)-2-methyl-5,6-dihydroimidazo[2,1-b]thiazole hydrobromide] was run?
A: Its Ki is 11.7 nM.

Q: `OCC1=C(c2cc3c(Cl)cccc3s2)N2CCN=C2S1` [Example 4, [3-(4-chlorobenzo[b]thiophen-2-yl)-5,6-dihydroimidazo[2,1-b]thiazol-2-yl]methanol] was tested. Which Ki did it give?
A: Its Ki is 2.2 nM.

Q: With `OCC1=C(c2cccc3sccc23)N2CCN=C2S1` [Example 3, [3-(benzo[b]thiophen-4-yl)-5,6-dihydroimidazo[2,1-b]thiazol-2-yl]methanol] as the compound, how does the Ki read?
A: Its Ki is 20.4 nM.

Same assay, conditions: read-out: 5-HT1A % displacement at 10^−6 M

Q: How did the inhibition at 1 µM turn out when `Cc1cccc2sc(C3=CSC4=NCCN34)cc12.Cl` [Example 14, 3-(4-methylbenzo[b]thiophen-2-yl)-5,6-dihydroimidazo[2,1-b]thiazole hydrochloride] was run?
A: Its inhibition at 1 µM is 64%.

Q: Which inhibition at 1 µM does the source give for `C=CC1=C(c2cccc3sccc23)N2CCN=C2S1.Cl` [Example 39, 3-(benzo[b]thiophen-4-yl)-2-vinyl-5,6-dihydroimidazo[2,1-b]thiazole hydrochloride] here?
A: Its inhibition at 1 µM is 85%.

Q: Which inhibition at 1 µM does the source give for `Br.CC1=C(c2cc3c(C)cccc3s2)N2CCN=C2S1` [Example 16, 2-methyl-3-(4-methylbenzo[b]thiophen-2-yl)-5,6-dihydroimidazo[2,1-b]thiazole hydrobromide] here?
A: Its inhibition at 1 µM is 97%.

Q: With `CCC1=C(c2cccc3sccc23)N2CCN=C2S1.O=C(O)/C=C/C(=O)O` [Example 25, 3-(benzo[b]thiophen-4-yl)-2-ethyl-5,6-dihydroimidazo[2,1-b]thiazole fumarate] as the compound, how does the inhibition at 1 µM read?
A: Its inhibition at 1 µM is 92%.

Q: How did the inhibition at 1 µM turn out when `Br.CC1=C(c2cc3c(Cl)c(Cl)ccc3s2)N2CCN=C2S1` [Example 24, 3-(4,5-dichlorobenzo[b]thiophen-2-yl)-2-methyl-5,6-dihydroimidazo[2,1-b]-thiazole hydrobromide] was run?
A: The inhibition at 1 µM was 76%.

Q: With `Br.CC1=C(c2cc3cccc(Cl)c3s2)N2CCN=C2S1` [Example 20, 3-(7-chlorobenzo[b]thiophen-2-yl)-2-methyl-5,6-dihydroimidazo[2,1-b]thiazole hydrobromide] as the compound, how does the inhibition at 1 µM read?
A: The inhibition at 1 µM was 98%.

Q: For `Br.CCC1=C(c2cc3c(Cl)cccc3s2)N2CCN=C2S1` [Example 18, 3-(4-chlorobenzo[b]thiophen-2-yl)-2-ethyl-5,6-dihydroimidazo[2,1-b]thiazole hydrobromide], which inhibition at 1 µM is on record?
A: The inhibition at 1 µM was 96%.

Q: For `Br.CCC1=C(c2cc3cc(Cl)ccc3s2)N2CCN=C2S1` [Example 11, 3-(5-chlorobenzo[b]thiophen-2-yl)-2-ethyl-5,6-dihydroimidazo[2,1-b]thiazole hydrobromide], which inhibition at 1 µM is on record?
A: Its inhibition at 1 µM is 80%.

Q: Which inhibition at 1 µM does the source give for `CC1=C(c2cccc3sc(C)cc23)N2CCN=C2S1.Cl` [Example 33, 2-methyl-3-(2-methylbenzo[b]thiophen-4-yl)-5,6-dihydroimidazo[2,1-b]thiazole hydrochloride] here?
A: Its inhibition at 1 µM is 99%.

Q: With `CSC1=C(c2cccc3sccc23)N2CCN=C2S1.Cl` [Example 22, 3-(benzo[b]thiophen-4-yl)-2-(methylthio)-5,6-dihydroimidazo[2,1-b]thiazole hydrochloride] as the compound, how does the inhibition at 1 µM read?
A: Its inhibition at 1 µM is 88%.

Q: `Br.CC1=C(c2cc3c(Cl)cccc3s2)N2CCCN=C2S1` [Example 17, 3-(4-chlorobenzo[b]thiophen-2-yl)-2-methyl-6,7-dihydro-5H-thiazolo[3,2-a]pyrimidine hydrobromide] was tested. Which inhibition at 1 µM did it give?
A: Its inhibition at 1 µM is 82%.

Q: With `Br.CC1(c2cc3cc(F)ccc3s2)CSC2=NCCN21` (centres unmarked) [Example 27, 3-(5-fluorobenzo[b]thiophen-2-yl)-3-methyl-5,6-dihydroimidazo[2,1-b]thiazole hydrobromide] as the compound, how does the inhibition at 1 µM read?
A: Its inhibition at 1 µM is 88%.
